For data set [1] the following is noted: from CO[C@@H](C)c1ncccc1-c1c(CC(C)(C)CO)c2cc(C3=CCCN(C[C@H](NC(=O)OC(C)(C)C)C(=O)N4CCC[C@@H](C(=O)O)N4)C3)ccc2n1CC(F)(F)F; ester bond; 18-membered ring; EDCI/HOBt/DIEA; DCM; 12.5 mM; 25.0 °C; 16.0 h; 3 steps.
A further data set has as its system SW1573. Conditions: Canon et al. 2019; cited from earlier work.

In turn, `CO[C@@H](C)c1ncccc1-c1c2c3cc(ccc3n1CC(F)(F)F)C1=CCCN(C1)C[C@H](NC(=O)OC(C)(C)C)C(=O)N1CCC[C@H](N1)C(=O)OCC(C)(C)C2` displayed a ring closure, isolated yield in data set [1] of 63.7%.

Regarding `C=CC(=O)N1CCN(c2nc(=O)n(-c3c(C)ccnc3C(C)C)c3nc(-c4c(O)cccc4F)c(F)cc23)[C@@H](C)C1` [AMG510], the “sensitivity of cell line to inhibitor” value with SW1573 is “insensitive”.

These data come from patent US20250197423A1, “RAS INHIBITORS” (Revolution Medicines, Inc., priority 2022, published 2025).
